Measurements from PubChem BioAssay AID493003 (Sanford-Burnham Center for Chemical Genomics, 2010).
Active and inactive are the calls of the source. How the calls were made is not given here.

What follows are compounds tested on S. cerevisiae tim10-1 mutant growth, luminescence (assay: tim10-1 yeast growth inhibition potency – luminescence, S. cerevisiae, uHTS hits, dose response (AID 493003);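 further: yeast growth measured after about 22 hours at 25 °C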).

SMILES	IC50
O=C(NNC(=S)Nc1cccc(C(F)(F)F)c1)c1cccc(Cl)c1	10 µM
COc1ccc2oc(=O)c(-c3csc(Nc4cccc(O)c4)n3)cc2c1	21.9 µM
CCCCN(CC)CCCNC(=O)c1cc2cc3ccc(OC)cc3nc2o1	17.2 µM
CCOc1cc(/C=C/C(=O)c2ccc(C)cc2)ccc1OCC(=O)N(C)C	22 µM
COc1ccc(/C(C)=N/NC(=S)NCCc2ccccc2)cc1	5.69 µM
N/C(Cc1ccc(Cl)cc1Cl)=N\OC(=O)Cc1ccc(Cl)cc1	1.41 µM
CNC(=O)c1nnsc1S(=O)(=O)c1ccc(Cl)cc1	16.4 µM
Cc1cc(Br)c(Cl)cc1NC(=O)CN1C(=O)C2C3CC(c4ccccc4)C(C3)C2C1=O (configuration not stated)	27.1 µM
O=C(Nc1ccccc1Br)C1CC(=O)N(c2ccc3c4c(cccc24)CC3)C1 (configuration not stated)	77.7 µM
CCOC(=O)c1c(CSc2ccc(C)cc2)n(C)c2cc(Br)c(O)c(CN(C)C)c12	15.9 µM
COc1ccc(C(=O)O/N=C(\N)c2ccc(Cl)cc2)cc1	13.3 µM
COc1ccc(-c2sc3cc4c(cc3c2C#CC2(N)CCCCC2)OCO4)cc1	12.5 µM
CC(C)(C)OC(=O)N[C@@H](Cc1ccccc1)c1nnc(S(=O)(=O)Cc2cccc(F)c2)o1	5.87 µM
CC(NC(=O)c1cccc(Cl)c1)C1CC2CCC1C2 (configuration not stated)	42.3 µM
Cc1nn(-c2ccc(Cl)cc2)c2[nH]c(CCl)cc(=O)c12	33.5 µM
COc1ccc(NC2CCN(C3CC(=O)N(c4ccc(F)c(Cl)c4)C3=O)CC2)cc1 (configuration not stated)	10.4 µM
O=c1oc2ccccc2c(O)c1/C=C1\C=Nc2ccccc21	6.24 µM
Cc1sc(NC(=O)c2ccco2)c(C(c2cccnc2)N2CCCC2)c1C (configuration not stated)	17.2 µM
CC(C)(C)C(=O)Nc1nnc(SCc2ccc(F)cc2)s1	42.2 µM
COc1ccc(/C(N)=N/OC(=O)CC2CCCCC2)cc1OC	24.2 µM
CSc1ccc(-c2nc3cnccn3c2Nc2ccc3c(c2)OCO3)cc1	59.4 µM
CCn1c(=S)sc2c(=O)n(-c3ccccc3)c(SC)nc21	68.4 µM
O=c1c2[nH]c3ccc(F)cc3c2nc2n1CCS2	27.8 µM
COC(=O)c1ccc(N2C(=O)CC(N(C)CCc3ccc(OC)c(OC)c3)C2=O)cc1 (configuration not stated)	18.6 µM

SMILES	IC50
CC1=CC(C)(C)N2C(=O)C(=O)c3cc(OC(=O)c4ccco4)cc1c32	33.4 µM
Cc1ccccc1OCC(=O)Nc1ccc(Cc2ccncc2)cc1	41.7 µM
Cc1ccccc1NC(=S)N(Cc1ccccn1)Cc1ccccc1Cl	20.9 µM
CSc1ccc2nnc(-c3cccc(F)c3)n2n1	29.6 µM
C/C(=N\OC(=O)NC(C)C)c1sc(-c2ccc(Cl)cc2)nc1C	33.5 µM
COc1ccc(/C=N/n2c(=S)n(C)c3ccccc32)cc1OC	36.1 µM
Oc1c(Cl)cc(Cl)cc1/C=C/c1ccc2cccc(O)c2n1	42.6 µM
CCCCC(CC)C(=O)Nc1ncc([N+](=O)[O-])s1 (configuration not stated)	19.3 µM
CCOc1ccc(NC(=O)c2cccc3c2C(=O)N(Cc2cccnc2)C3)cc1	22.8 µM
C=CCN(CC=C)S(=O)(=O)c1ccc(NC(=O)COc2ccccc2OC)cc1	77.3 µM
Cc1nn(C)c(C)c1NC(=O)Nc1ccc(Cl)c(Cl)c1	22.4 µM
C/C(=N\NC(=O)c1cc(-c2cccs2)nc2ccccc12)c1ccccn1	28.7 µM
COc1cccc(-c2csc(N3CCN(C(=S)Nc4ccccc4Cl)CC3)n2)c1	21.3 µM
O=C1c2cccc3cccc(c23)C(=O)N1CCN1CCN(CC(O)COc2ccc3ccccc3c2)CC1 (configuration not stated)	19.3 µM
O=C(CN1CCN(S(=O)(=O)c2ccc3ccccc3c2)CC1)Nc1ccc2c(c1)CCC2	36.6 µM
N/C(=N\OC(=O)CCC1CCCCC1)c1ccccn1	26.8 µM
CCn1nccc1C(=O)Nc1ccc(Cl)c(Cl)c1	24.3 µM
CC(=O)OC[C@]12CCC(C)=C[C@H]1O[C@@H]1[C@H](O)[C@@H](OC(C)=O)[C@@]2(C)[C@]12CO2	30.8 µM
COc1cc(C(=O)O/N=C(\N)Cc2ccc([N+](=O)[O-])cc2)cc(OC)c1OC	22.3 µM
N=c1c2c(-c3ccccc3)c(-c3ccccc3)n(Cc3ccccc3)c2ncn1CCO	23.8 µM
COc1ccc2nc(/N=C(\N)NC(=O)Nc3ccccc3)nc(C)c2c1	47.3 µM
O=C(Cc1ccccc1)N/N=C/c1ccc2cccc(O)c2n1	> 100 µM (inactive)
Cc1cccc(/C(N)=N/OC(=O)COc2ccc(Cl)cc2)c1	48.4 µM
CCCc1cc(NCC2CCCO2)n2c(nc3ccccc32)c1C#N (configuration not stated)	26.7 µM

SMILES	IC50
O=[N+]([O-])c1ccccc1N/N=C/c1c[nH]c2ccccc12	13.8 µM
Cc1ccnn2cc3c(=O)n(C)c(=O)n(C)c3c12	63.1 µM
O=C(Oc1ccc(C(=S)N2CCOCC2)cc1)c1ccccc1[N+](=O)[O-]	25.4 µM
O=C(/C=C\c1ccc(-c2ccccc2)o1)c1ccccc1	5.47 µM
CC(C)c1nnc(NC(=O)CCS(=O)(=O)c2nc(-c3cccs3)cc(C(F)(F)F)n2)s1	11.9 µM
Nc1c(C(=O)Nc2ccccc2)c2nc3ccccc3nc2n1CCCN1CCOCC1	8.41 µM
COc1cc(/C=N/O)ccc1Oc1ccc([N+](=O)[O-])cc1[N+](=O)[O-]	24.4 µM
Cc1ccc(OCC(=O)O/N=C(\N)Cc2ccc(Cl)cc2)cc1	9.22 µM
COC(=O)c1cc(NC(=S)Nc2cc(Cl)cc(Cl)c2)cc(C(=O)OC)c1	23 µM
O=C(CSCc1ccccc1Cl)NNC(=S)Nc1ccccc1	33 µM
O=C(NC(=S)Nc1cccc(C(F)(F)F)c1)c1csnn1	26 µM
O=C1CC(SCc2nc3ccccc3[nH]2)C(=O)N1c1ccc(F)c(Cl)c1 (configuration not stated)	32.1 µM
COc1cccc(Nc2ncccc2C(=O)Nc2ccccc2)c1	31.7 µM
O=C(O/N=C(/c1ccccc1)c1ccncc1)c1ccccc1[N+](=O)[O-]	29 µM
COc1ccc(N2C(=O)CC(Sc3nc4ccccc4s3)C2=O)cc1 (configuration not stated)	32.5 µM
Cc1cc(/C=C\c2ccc3cc(N(C)C)ccc3[n+]2C)c(C)n1-c1ccccc1	9.45 µM
O=C(Nc1cccc(Cl)c1)N1N=CCC1c1ccccc1 (configuration not stated)	29.6 µM
Cc1cc(C)cc(NC(=O)c2cc(S(=O)(=O)NCc3ccco3)ccc2F)c1	32.3 µM
CN(CCCC(=O)O)c1ccc(N=Nc2ccc([N+](=O)[O-])cc2)cc1	19.5 µM
Nc1nc(Nc2cccc(C(F)(F)F)c2)nc(C(F)(F)F)n1	23.4 µM
C(=N\N1CCOCC1)/c1cn(-c2ccccc2)nc1-c1ccccc1	33.7 µM
Cc1ccc(NC(=O)c2ccc(Cl)c(N3C(=O)C=CC3=O)c2)cc1	8.63 µM
COc1cc(/C=C/C(=O)CC(=O)/C=C/c2ccc(O)c(OC)c2)ccc1O	19.7 µM
O=C(Nc1ccc(Cl)c(C(F)(F)F)c1)c1ccco1	28.7 µM

SMILES	IC50
COc1cccc(N2[C@@H](CC(C)=O)c3ccc(/C=C/C(C)=O)cc3S2(=O)=O)c1	18.3 µM
CC1CCN(C(=S)c2cn(Cc3ccccc3F)c3ccccc23)CC1	35.4 µM
C=CCc1cccc(CNc2nc3ccccc3n2C(C)C)c1O	61.1 µM
Cc1ccc(-n2cc(-c3ccc([N+](=O)[O-])cc3)[nH]c2=S)c(C)c1	87.4 µM
O=[N+]([O-])c1ccc(Sc2cccc3cccnc23)c([N+](=O)[O-])c1	78.7 µM
CNc1nc(-c2ccccn2)nnc1-c1ccccc1	29.8 µM
OCCN1CCN(CCCN2c3ccccc3Sc3ccc(C(F)(F)F)cc32)CC1	31.3 µM
CCOc1ccccc1N1CCN(C(=O)Nc2ccc(F)c(Cl)c2)CC1	60.6 µM
CCCCNC(=S)N=Nc1c(O)[nH]c2ccccc12	9.9 µM
Cc1nnc(SC2CC(=O)N(c3ccccc3)C2=O)s1 (configuration not stated)	31.1 µM
CC(C)c1ccc(S(=O)(=O)Nc2ccc(SC(F)F)cc2)cc1	45.9 µM
OC(COc1ccccc1)Cn1c2ccccc2c2ccccc21 (configuration not stated)	29.4 µM
N/C(=N\OC(=O)CCC1CCCC1)c1ccccc1	16.7 µM
S=C(NCCSCc1ccc(Cl)cc1)Nc1ccccc1	19.5 µM
COc1c(/C=C2\SC(=Nc3ccccc3Cl)NC2=O)cccc1[N+](=O)[O-]	22.5 µM
CC(/C=N/Nc1nc(C)cc(C)n1)=C\c1ccc(C(C)C)cc1	39.1 µM
CCOC(=O)c1c(-c2ccccc2)csc1NC(=S)NC	44.7 µM
Cc1ccc(NC(=S)Nc2ccc(Cl)c(Cl)c2)c(OC(F)F)c1	14 µM
COc1ccc(OCC(=O)O/N=C(\N)Cc2ccc(Cl)cc2)cc1	38.4 µM
O=C(c1ccc2c3n(nc2c1)-c1ccccc1CO3)N1CCCCC1	13.4 µM
O=C(/C=C/c1c[nH]c2ccccc12)c1ccccc1	78.2 µM
N/C(=N\OC(=O)c1ccccc1Cl)c1cccc([N+](=O)[O-])c1	23 µM
CCn1c(SCc2c(F)cccc2Cl)nnc1-c1ccco1	24.3 µM
Cc1nonc1C1CCCN1C(=O)c1cc(COc2cccc(C(F)(F)F)c2)on1 (configuration not stated)	17.3 µM

SMILES	IC50
CC(C)C1O/C(=N/C(=O)Nc2ccc(Cl)c(Cl)c2)NC1=O (configuration not stated)	32.3 µM
COc1ccc(Cl)cc1NC(=S)NCc1ccco1	16.2 µM
COc1ccc(Cn2c(-c3ccc(Br)cc3)c[n+]3ccccc23)cc1	37.8 µM
O=Cc1c[nH]c2cccc(OCc3ccccc3)c12	27.4 µM
O=[N+]([O-])c1cc(Cl)ccc1N1CCN(c2ccccc2O)CC1	32.3 µM
COc1ccccc1C(CCNCc1ccccc1)c1ccc(OC(C)C)cc1 (configuration not stated)	19.9 µM
Nc1nc(Nc2ccccc2)nc2ccccc12	28.1 µM
CCCCOc1cccc(-c2cc(C(=O)NNC(=S)NCC)c3ccccc3n2)c1	89.3 µM
Cc1noc(NS(=O)(=O)c2ccc(NC(=O)Nc3ccc(Cl)c(Cl)c3)cc2)c1C	43.1 µM
O=c1c2ccccc2[se]n1-c1ccccc1	10 µM
O=C(OCn1ncc(Br)c(Br)c1=O)c1ccccc1Cl	6.12 µM
O=[N+]([O-])c1cc(/C=N/O)ccc1Oc1ccccc1Cl	33.9 µM
Cc1cc(Nc2ccccc2Cl)nc(-c2ccccc2O)n1	33.2 µM
N/C(=N\OC(=O)c1cccc2ccccc12)c1ccncc1	40.8 µM
COc1ccc(C2NC(=S)NC3=C2CCc2cc(OC)ccc23)cc1 (configuration not stated)	36.7 µM
Cc1ccccc1C(=O)NC(=S)Nc1ccccc1N1CCCC1	17.3 µM
Cc1ccc(-c2cc(-c3cccc(F)c3)n[nH]2)c(O)c1	40.4 µM
CC1(C)CC2CC(C)(CN2C(=S)NC(=O)c2ccccc2Cl)C1 (configuration not stated)	59.9 µM
Cc1cc(C)n2nc(SCc3c(F)cccc3Cl)nc2n1	> 100 µM (inactive)
O=C(/C=C/c1ccccc1)CC(O)(c1ccccc1)C(F)(F)C(F)F (configuration not stated)	16.3 µM
COc1cc(OC)c(C(=O)O/N=C(\N)c2cccc(C)c2)cc1OC	17.7 µM
